The target of one test is T1, recombinant USP1 protein (Homo sapiens, UniProt O94782, DEL125-138/DEL229-408/DEL608-737).
T1 sequence (O94782 with tags, fused parts or gaps DEL125-138/DEL229-408/DEL608-737): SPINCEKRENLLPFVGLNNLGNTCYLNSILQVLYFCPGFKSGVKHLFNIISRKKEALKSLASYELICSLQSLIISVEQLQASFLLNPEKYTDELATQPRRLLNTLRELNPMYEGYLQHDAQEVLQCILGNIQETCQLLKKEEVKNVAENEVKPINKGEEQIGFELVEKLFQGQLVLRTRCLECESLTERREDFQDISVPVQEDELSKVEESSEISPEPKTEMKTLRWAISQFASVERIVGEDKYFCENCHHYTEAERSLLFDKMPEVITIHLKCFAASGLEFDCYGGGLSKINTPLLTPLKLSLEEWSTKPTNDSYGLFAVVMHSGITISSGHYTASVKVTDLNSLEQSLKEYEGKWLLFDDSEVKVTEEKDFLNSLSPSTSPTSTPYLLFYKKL
In words: Binding affinity to recombinant USP1 protein by differential scanning fluorimetry. The following applies: compound 100 µM; 0.03 mg/mL USP1 (Δ1-66, Δ125-138, Δ229-408, Δ608-737); Tm with compound minus Tm with DMSO; read-out: ΔTm (°C). In short, it runs like this: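 Thermal shift readout: ΔTm is the compound-well melting temperature less the DMSO-well value, measured by real-time PCR. Compounds tested at 100 µM final against 0.03 mg/mL truncated USP1 (Δ1-66, Δ125-138, Δ229-408, Δ608-737) in pH 8.0 Tris buffer containing 150 mM NaCl, 2% glycerol, 1 mM DTT.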

The subject of another test is UWB1.289 cells. In words: Cell proliferation inhibitory activity in BRCA1/2-mutant or HRD-positive cells (Cell Titer-Glo). Format: cell-based. The following applies: UWB1289; UWB1.289 cells, 144 hours after compound treatment, Cell Titer-Glo, 1.5 nM to 10 µM; read-out: GI50 UWB1.289 BRCA1 mut. In short, it runs like this: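 GI50 from CellTiter-Glo luminescence after 144 h compound exposure at 37 °C. Cells seeded at 1,000 per well in MEBM/RPMI1640 mix 16–24 h beforehand; […] from 10 µM down to 1.5 nM final (3-fold steps).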
(In general: In ATP-based viability assays light output follows the ATP content of the culture.)

The ΔTm is the change in melting temperature against a reference sample. A word on the GI50: it is the concentration that inhibits growth by half. Turning to `COc1ncnc(C2CC2)c1-c1ncc2cc(C(=O)NC[C@@H](O)CO)n(Cc3ccc(-c4nc(C(F)(F)F)cn4C)cc3)c2n1` [Example 176, (R) -2-(4-cyclopropyl-6-methoxypyrimidin-5-yl)-N-(2,3-dihydroxypropy 1)-7-(4-(1-methyl-4-(trifluoromethyl)-1H-imidazol-2-yl)benzyl)-7H-pyrrolo[2,3-d]pyrimidine-6-carboxamide], the ΔTm at 100 µM on recombinant USP1 protein is over 5 °C. Further, in the test with UWB1.289 cells, the concentration for 50% growth inhibition (GI50) lay in the range of 100 to 500 nM.
Taken in the same sequence, the figures for `COc1ncnc(C2CC2)c1-c1ncc2cc(C(N)=O)n(Cc3ccc(-n4nc(C(F)(F)F)cc4C)cc3)c2n1` [Example 177, 2-(4-cyclopropyl-6-methoxypyrimidin-5-yl)-7-(4-(5-methyl-3-(trifluoromethyl)-1H-pyrazol-1-yl)benzyl)-7H-pyrrolo[2,3-d]pyrimidine-6-carboxamide] were over 5 °C and under 100 nM.
Taken in the same sequence, the figures for `CNC(=O)c1cc2cnc(-c3cccnc3OC(F)F)nc2n1Cc1ccc(-c2nc(C(F)(F)F)cn2C(C)C)cc1` [Example 178, 2-(2-(difluoromethoxy)pyridin-3-yl)-7-(4-(1-isopropyl-4-(trifluoromethyl)-1H-imidazol-2-yl)benzyl)-N-methyl-7H-pyrrolo[2,3-d]pyrimidine-6-carboxamide] were over 5 °C and under 100 nM.
On the same counts, the results for `COc1ncnc(C2CC2)c1-c1ncc2cc(C(=O)N3CC(N(C)C)C3)n(Cc3ccc(-c4nc(C(F)(F)F)cn4C)cc3)c2n1` [Example 179, (2-(4-cyclopropyl-6-methoxypyrimid in-5-yl)-7-(4-(1-methyl-4-(trifluoromethyl)-1H-imidazol-2-yl)benzyl)-7H-pyrrolo[2,3-d]pyrimidin-6-yl) (3-(dimethylamino)azetidin-1-yl)methanone] are over 5 °C and under 100 nM.
As for `CNC(=O)c1cc2cnc(-c3ccccc3C(C)C)nc2n1Cc1ccc(-c2nc(C(F)(F)F)cn2C)cc1` [Example 180, 2-(2-isopropylphenyl)-N-methyl-7-(4-(1-methyl-4-(trifluoromethyl)-1H-imidazol-2-yl)benzyl)-7H-pyrrolo[2,3-d]pyrimidine-6-carboxamide], the ΔTm at 100 µM on recombinant USP1 protein was over 5 °C. Further, the GI50 in the test with UWB1.289 cells was under 100 nM.
On the same counts, the results for `COc1ncnc(C2CC2)c1-c1ncc2cc(C(=O)N[C@H]3CN(C)C[C@@H]3F)n(Cc3ccc(-c4nc(C(F)(F)F)cn4C)cc3)c2n1` [Example 181, 2-(4-cyclopropyl-6-methoxypyrimidin-5-yl)-N-((3S,4S)-4-fluoro-1-methylpyrrolidin-3-yl)-7-(4-(1-methyl-4-(trifluoromethyl)-1H-imidazol-2-yl)benzyl)-7H-pyrrolo[2,3-d]pyrimidine-6-carboxamide] are over 5 °C and under 100 nM.
On the same counts, the results for `COc1ncnc(C2CC2)c1-c1ncc2cc(C(=O)N[C@H]3CN(C)C[C@H]3F)n(Cc3ccc(-c4nc(C(F)(F)F)cn4C)cc3)c2n1` [Example 182, 2-(4-cyclopropyl-6-methoxypyrimidin-5-yl)-N-((3S,4R)-4-fluoro-1-methylpyrrolidin-3-yl)-7-(4-(1-methyl-4-(trifluoromethyl)-1H-imidazol-2-yl)benzyl)-7H-pyrrolo[2,3-d]pyrimidine-6-carboxamide] are over 5 °C and under 100 nM.
On the same counts, the results for `[2H]C([2H])([2H])n1cc(C(F)(F)F)nc1-c1ccc(Cn2c(C(=O)NC)cc3cnc(-c4c(OC)ncnc4C4CC4)nc32)cc1` [Example 183, 2-(4-cyclopropyl-6-methoxypyrimidin-5-yl)-N-methyl-7-(4-(1-(methyl-d3)-4-(trifluoromethyl)-1H-imidazol-2-yl)benzyl)-7H-pyrrolo[2,3-d]pyrimidine-6-carboxamide] are over 5 °C and under 100 nM.
